Values quoted from earlier work as cited in patent US6858612B1, “Use of tetrahydropteridine derivatives as no synthase inhibitors” (Vasopharm Buitech GmbH, priority 1994, dated 2005).

Test system: NO synthases

Structure (SMILES) | effect on NO synthase activity (Hevel and Marletta, Giovanelli et al. only at relatively high concentrations) | effect on NO production (literature reports (Kwon et al., Giovanelli et al., Overfeld et al.), concentration-dependent)
CC1CNc2nc(N)[nH]c(=O)c2N1 (centres unmarked) [6-methyl-5,6,7,8-tetrahydropterin] | increase in NO synthase activity | –
C[C@H](O)[C@H](O)C1=Nc2c(nc(N)[nH]c2=O)NC1 [7,8-dihydrobiopterin] | – | Stimulation of NO production
